Results on five compounds are retold here after ChEMBL document CHEMBL1156327, “Synthesis and biological evaluation of anti-1-amino-2-[18F]fluoro-cyclobutyl-1-carboxylic acid (anti-2-[18F]FACBC) in rat 9L gliosarcoma” (Bioorg Med Chem Lett, 2010).

Data set [1] is described as follows: Ratio of drug level in Fisher 344 rat brain to rat 9L tumor cells implanted in Fisher 344 rat after 60 mins. The data set is classed as ADME, cell-based. Particulars: 1 h.
A short description of data set [2]: Drug uptake in rat 9L tumor implanted in Fischer 344 rat after 30 mins relative to control. Format: ADME, Neoplasm. The following applies: read-out: Drug uptake.
The next data set relates to 9L. Nature of the data set: Cellular uptake in rat 9L cells after 30 mins measured per 0.5 million cells. The data set is classed as ADME, cell-based. The following applies: 0.5 h.
Data set [3] can be described thus: Ratio of drug level in Fisher 344 rat brain to rat 9L tumor cells implanted in Fisher 344 rat after 120 mins. Particulars: 2 h. Format: ADME, cell-based.
A short description of data set [4]: Ratio of drug level in Fisher 344 rat brain to rat 9L tumor cells implanted in Fisher 344 rat after 30 mins. The data set is classed as ADME, cell-based. The following applies: 0.5 h.
Data set [5] is described as follows: Drug uptake in rat 9L cells xenografted Fisher 344 rat brain measured per gram of tissue. The data set is classed as ADME, cell-based. Particulars: Fischer 344, rat, read-out: Drug uptake.
Data set [6] is described as follows: Drug uptake in rat 9L tumor implanted in Fischer 344 rat after 120 mins relative to control. The data set is classed as ADME, Neoplasm. Particulars: read-out: Drug uptake.
Data set [7] can be described thus: Ratio of drug level in Fisher 344 rat brain to rat 9L tumor cells implanted in Fisher 344 rat after 15 mins. The data set is classed as ADME, cell-based. The following applies: 0.25 h.
A short description of data set [8]: Drug uptake in rat 9L tumor implanted in Fischer 344 rat after 60 mins relative to control. The data set is classed as ADME, Neoplasm. The following applies: read-out: Drug uptake.
Data set [9] in a line: Drug uptake in rat 9L tumor implanted in Fischer 344 rat after 15 mins relative to control. The following applies: read-out: Drug uptake. Format: ADME, Neoplasm.

As to `N[C@@]1(C(=O)O)CC[C@@H]1[18F]`, the Ratio in data set [1] is reported as 14; in [3] it was 26; in data set [4], 17; in data set [7], 12. For the same compound, the tissue uptake at 0.5 h in [2] was found to be 0.66 %ID/g. In the data set with 9L, this compound showed a Drug uptake of 3.3%. Further, the tissue uptake in data set [5] was found to be 0.04 %ID/g. In addition, in data set [6], the tissue uptake at 2 h is 0.6 %ID/g. In [8], the tissue uptake at 1 h amounted to 0.65 %ID/g. In data set [9], the tissue uptake at 0.25 h came to 0.51 %ID/g.

With `N[C@]1(C(=O)O)C[C@@H](C[18F])C1`, in data set [4], the Ratio amounted to 8.9.

As for `N[C@]1(C(=O)O)C[C@H](C[18F])C1`, in data set [4], the Ratio was found to be 6.9.

Turning to `N[C@]1(C(=O)O)C[C@H]([18F])C1`, in data set [4], the Ratio is 7.6.

In the case of `N[C@]1(C(=O)O)C[C@@H]([18F])C1` [FLUCICLOVINE F18], the Ratio in [4] was found to be 6.6.
